Test results taken from patent US11884706B2, “Immunomodulating peptide derived from concave-eared torrent frog and use thereof” (priority 2019, dated 2024).

How the values were obtained:
MAPKs (ERK, JNK subunit) = experiment: Activation of MAPKs signaling in BMDMs; format: cell-based, mouse; conditions: BMDMs, 0, 25, 50, 100 μg/mL, 30 min
Procedure: (§1) Mouse bone marrow-derived macrophages (BMDMs) were inoculated into a 6-well plate and cultured without serum for 16 h. For the detection of MAPKs and NF-κB, BMDMs were incubated with different concentrations of Ot-WHP (0, 25, 50, 100 μg/mL) for 30 min. For the detection of TGF-β/Smad signaling pathway, BMDMs were incubated with different concentrations of Ot-WHP (0, 25, 50, 100 μg/mL) for 24 h, or BMDMs were incubated with 100 μg/mL Ot-WHP, with or without TGF-β1 antibody.

HaCat = experiment: Keratinocyte proliferation, co-incubation with THP-1 derived macrophages (CCK-8); format: cell-based; conditions: HaCat with THP-1 derived macrophages, 25, 50, 100 μg/mL, 24 h
Procedure: (§2) HaCat was co-incubated with THP-1 derived macrophages, and mouse fibroblasts were co-incubated with mouse macrophages BMDMs. HaCat (1×10^5 cells/well) or mouse fibroblasts (1×10^5 cells/well) were inoculated into a 24-well plate (lower chamber) one day in advance. After adherence, corresponding macrophages (1×10^5 cells/well, 100 μL) and different concentrations of Ot-WHP (25, 50, 100 μg/mL) or Vehicle (PBS, control) were added to the co-incubation chamber (upper chamber). After HaCat was co-incubated with THP-1-derived macrophages for 24 h, and the fibroblasts were co-incubated with mouse macrophages BMDMs for 72 h, the co-incubated upper chamber was discarded, and the cell activity in the lower chamber was detected by CCK-8.

mouse skin wounds = experiment: Skin wound healing in mice (8 mm biopsy punch wound on the back); format: in vivo, BALB/c mice; conditions: 20 μL, 200 μg/mL dripped into wound once a day for 8 days; days 2, 4, 6, 8 after operation; vs PBS
Procedure: Experimental animals BALB/c mice, female, 6-8 weeks old, weighed 18-20 g, were purchased from Shanghai Slac Animal Co., Ltd. The mice were anesthetized by intraperitoneal injection of 2% sodium pentobarbital (0.1 mL/20 g), and the back was shaved with an electric razor and disinfected with iodophor. A hole was punched in the exposed back by a biopsy punch having a diameter of 8 mm. After the operation, the mice were kept in separate cages until the end of the experiment. The mice were randomly divided into 6 groups having 5 animals in each group, including a negative control group (20 μL PBS), a natural Ot-WHP group (20 μL, 200 μg/mL), a synthetic Ot-WHP group (20 μL, 200 μg/mL), a scrambled Ot-WHP group (SEQ ID NO:2, 20 μL, 200 μg/mL), an AH90 positive polypeptide control group (20 μL, 200 μg/mL), and an EGF growth factor control group (20 μL, 100 μg/mL). The drugs were dripped into corresponding wounds in mice once a day for 8 days.
FIGS. 3A1-A4 show the wound healing rate of mice in different experimental groups at 2, 4, 6, and 8 days after surgery. In the figures, Vehicle represents the negative control group; synthetic Ot-WHP represents the synthetic Ot-WHP group; Natural Ot-WHP represents the natural Ot-WHP group; and Scrambled Ot-WHP represents the scrambled Ot-WHP group.

mouse fibroblasts [1] = experiment: Fibroblast proliferation, direct (CCK-8); format: cell-based; conditions: mouse fibroblasts, 25, 50, 100 μg/mL, 72 h
Procedure: (§3) Keratinocytes HaCat and mouse fibroblasts (5×10^3 cells/well, 100 μL/well) were inoculated into a 96-well plate, and incubated with different concentrations of Ot-WHP (25, 50, and 100 μg/mL). PBS was used as a control. After HaCat was incubated with Ot-WHP for 24 h, and the fibroblasts were incubated with Ot-WHP for 72 h, 10 μl of Cell Counting Kit-8 (CCK-8) solution was added to each well, and incubated for another 2-4 h at 37° C. The absorbency at 450 nm was detected on a microplate reader.

mouse fibroblasts [2] = experiment: Fibroblast proliferation, co-incubation with mouse macrophages BMDMs (CCK-8); format: cell-based; conditions: mouse fibroblasts with BMDMs, 25, 50, 100 μg/mL, 72 h
Procedure: as §2

[3] = system: mouse bone marrow-derived macrophages (BMDMs); experiment: Chemokine and cytokine production in BMDM supernatant; format: cell-based; conditions: 25, 50, 100 μg/mL, 24 h, vs PBS
Procedure: To clarify why Ot-WHP can cause the migration of neutrophils and macrophages in the coexistence of macrophages, mouse bone marrow-derived macrophages (BMDMs, 5×10^5 cells/well, DMEM medium, 2% FBS) were plated in a 24-well plate, Ot-WHP (25, 50, 100 μg/mL) or an equal volume of PBS (Vehicle) were added, and cultured for 24 h. The supernatant was collected, and centrifuged at 10000×g for 10 min. The chemokines and cytokines were determined.

[4] = system: bone marrow-derived macrophages (BMDMs); experiment: Transwell migration in co-incubation system with BMDMs in lower chamber; format: cell-based, mouse; conditions: 25-100 μg/mL, 8 h
Procedure: (§4) In a co-incubation system, mouse bone marrow-derived macrophages (BMDMs, 4×10^6 cells/mL, 500 μL) resuspended in RPMI 1640 medium containing 2% FBS were plated in the lower chamber (24-well plate) of the co-incubation chamber. After adherence, the prepared mouse neutrophils (7×10^6 cells/mL, 100 μL) or bone marrow-derived macrophages (BMDMs, 7×10^6 cells/mL, 100 μL) were added to the Transwell chamber with a pore size of 3.0 μm (upper chamber, 24-well plate). Then 500 μL of Ot-WHP (25, 50, 100 μg/mL, dissolved in RPMI 1640 medium containing 2% FBS) or the culture medium (control) was added to the lower chamber, and then cultured in a cell incubator at 37° C. for 8 h. The cells in the upper chamber were collected and counted with a hemocytometer. The reduced cells in the upper chamber are the migrated cells

fibroblasts [5] = experiment: Collagen in fibroblast supernatant by ELISA, direct; format: cell-based, mouse; conditions: fibroblasts alone
Procedure: as §3
(§5) The method was the same as that in Example 8. The fibroblasts treated in Example 8 were lysed with RIPA cell lysis solution. The protein was extracted, and the expression of α-SMA was detected by Western blot. A higher expression level of α-SMA means a higher transformation of fibroblasts into […]. The supernatant of the fibroblasts treated in Example 8 was collected, and the production of collagen in the supernatant was quantitatively detected with an ELISA kit.

[6] = system: bone marrow-derived macrophages (BMDMs); experiment: Transwell migration, direct (peptide in lower chamber); format: cell-based, mouse; conditions: 25-100 μg/mL, 8 h, no macrophages in lower chamber
Procedure: (§6) To clarify how Ot-WHP chemoattracts neutrophils and macrophages to the wound area, the prepared mouse neutrophils or bone marrow-derived macrophages (BMDMs) were resuspended in RPMI 1640 medium containing 2% FBS at a cell density of 7×10^6 cells/mL. 100 μL was pipetted to a Transwell chamber with a pore size of 3.0 μm (upper chamber, 24-well plate). Then 500 μL of Ot-WHP (25, 50, 100 μg/mL, dissolved in RPMI 1640 medium containing 2% FBS) or the culture medium (control) was pipetted to the lower chamber, and then cultured in a cell incubator at 37° C. for 8 h. The cells in the lower chamber were collected and counted with a hemocytometer.

α-SMA in fibroblasts [7] = experiment: α-SMA expression in fibroblasts by Western blot, direct; format: cell-based, mouse; conditions: fibroblasts alone, treated as in Example 8
Procedure: as §3, §5

Keratinocytes HaCat = experiment: Keratinocyte proliferation, direct (CCK-8); format: cell-based; conditions: HaCat, 25, 50, 100 μg/mL, 24 h
Procedure: as §3

mouse neutrophils [8] = experiment: Transwell migration in co-incubation system with BMDMs in lower chamber; format: cell-based; conditions: 25-100 μg/mL, 8 h
Procedure: as §4

skin wounds of mice = experiment: Chemokine and cytokine production in skin wound tissue homogenate; format: in vivo; conditions: days 0, 0.5, 1, 2, 4, 6, vs PBS
Procedure: Then whether Ot-WHP can induce the production of chemokines and cytokines in the skin wounds of mice was tested. At specified time points (days 0, 0.5, 1, 2, 4, and 6), the wound tissue of the mice was removed and homogenized with 0.1 M PBS (containing 1 mM PMSF, 1 mL/g tissue) in a glass homogenizer. After the homogenization, the homogenate was centrifuged at 12000×g and 4° C. for 30 min. The supernatant was collected, and the chemokines (CXCL1 and CCL2) and cytokines (including TNF-α and TGF-β1) were determined.

α-SMA in fibroblasts [9] = experiment: α-SMA expression in fibroblasts by Western blot, co-incubation with macrophages; format: cell-based, mouse; conditions: fibroblasts co-incubated with macrophages
Procedure: as §2, §5

macrophages = experiment: Immunohistochemical count of macrophages (anti-F4/80) recruited to the wound; format: in vivo, mice; conditions: natural Ot-WHP dripped to wound; days 2 and 3 after operation; vs negative control
Procedure: (§7) The mice were treated according to the method in Example 3. The drugs in the negative control group and the natural Ot-WHP group were dripped to wounds of corresponding mice. At specified time point (0.5, 1, 2, 3 days) after the operation, the mice were sacrificed. A biopsy tissue containing the wound center was taken, immobilized with 10% formalin, then dehydrated by ethanol, washed with xylene, and finally embedded in paraffin. The paraffin block was cut into 5 μm slices, deparaffinized, and hydrated, and antigen retrieval was performed for immunohistochemical analysis. The slice was blocked with 5% BSA for non-specific sites, incubated with the primary antibody (anti-Ly6G for neutrophils, and anti-F4/80 for macrophages) at 4° C., and immunostained with horseradish peroxidase and DBA. The infiltration by neutrophils and macrophages was measured by statistically counting the immunostained anti-Ly6G and anti-F4/80 cells.
(§8) FIGS. 4A1-A4 show the immunohistochemical results of neutrophils recruited on days 0.5 and 1 after operation of mice in different groups. FIGS. 4C1-C4 show the immunohistochemical results of macrophages recruited on days 2 and 3 after operation of mice in different groups. FIGS. 4B1-B2 show the statistical results of neutrophils recruited on days 0.5 and 1 after operation of mice in different groups. […]

[10] = system: NF-κB (IκBα, p65 subunit); experiment: Activation of NF-κB signaling in BMDMs; format: cell-based, mouse; conditions: BMDMs, 0, 25, 50, 100 μg/mL, 30 min
Procedure: as §1

mouse neutrophils [11] = experiment: Transwell migration, direct (peptide in lower chamber); format: cell-based; conditions: 25-100 μg/mL, 8 h, no macrophages in lower chamber
Procedure: as §6

neutrophils = experiment: Immunohistochemical count of neutrophils (anti-Ly6G) recruited to the wound; format: in vivo, mice; conditions: natural Ot-WHP dripped to wound; days 0.5 and 1 after operation; vs negative control
Procedure: as §7, §8

Smad (Smad2, Smad3) = experiment: Activation of TGF-β/Smad signaling in BMDMs; format: cell-based, mouse
Procedure: as §1

fibroblasts [12] = experiment: Collagen in fibroblast supernatant by ELISA, co-incubation with macrophages; format: cell-based, mouse; conditions: fibroblasts co-incubated with macrophages
Procedure: as §2, §5

Ot-WHP: immunomodulating peptide of 24 amino acids from concave-eared torrent frog skin, sequence ATAWDLGPHGIRPLRPIRIRPLCG (SEQ ID NO:1); natural (purified) or chemically synthesized (Ot-WHP Peptide; listed as Odorrana tormota)
activation of MAPKs (ERK, JNK subunit) signaling pathway (MAPKs (ERK, JNK subunit)): activates | proliferation of keratinocytes when macrophages coexist (HaCat): can promote the proliferation | healing of mouse skin wounds (wound healing rate) (mouse skin wounds): significantly promote the healing of mouse skin wounds with an effect comparable to AH90 and EGF | proliferation of fibroblasts, direct (mouse fibroblasts [1]): cannot directly promote the proliferation | proliferation of fibroblasts when macrophages coexist (mouse fibroblasts [2]): can promote the proliferation | CCL2 production in BMDMs [3]: induces mouse BMDMs to produce | CXCL1 production in BMDMs [3]: induces mouse BMDMs to produce | CXCL2 production in BMDMs [3]: induces mouse BMDMs to produce | CXCL3 production in BMDMs [3]: induces mouse BMDMs to produce | IL-1β production in BMDMs [3]: induces mouse BMDMs to produce | IL-6 production in BMDMs [3]: induces mouse BMDMs to produce | TGF-β1 production in BMDMs [3]: induces mouse BMDMs to produce | TNF-α production in BMDMs [3]: induces mouse BMDMs to produce | migration of macrophages when macrophages coexist [4]: significantly causes the migration | collagen production by fibroblasts, direct (fibroblasts [5]): no direct effect on the collagen production by fibroblasts | migration of macrophages, direct [6]: does not directly cause the migration | expression of α-SMA in fibroblasts (transformation into fibrocytes), direct (α-SMA in fibroblasts [7]): no direct effect on the expression of α-SMA in fibroblasts | proliferation of keratinocytes, direct (Keratinocytes HaCat): cannot directly promote the proliferation | migration of neutrophils when macrophages coexist (mouse neutrophils [8]): significantly causes the migration | CCL2 production in skin wounds (skin wounds of mice): effectively induce the production | CXCL1 production in skin wounds (skin wounds of mice): effectively induce the production | TGF-β1 production in skin wounds (skin wounds of mice): effectively induce the production | TNF-α production in skin wounds (skin wounds of mice): effectively induce the production | expression of α-SMA by fibroblasts (transformation into fibrocytes) with coexisting macrophages (α-SMA in fibroblasts [9]): promote the expression of α-SMA by fibroblast | migration of macrophages to the wound (macrophages): promote the migration of neutrophils and macrophages to the wound | activation of NF-κB (IκBα, p65 subunit) signaling pathway [10]: activates | migration of neutrophils, direct (mouse neutrophils [11]): does not directly cause the migration | migration of neutrophils to the wound (neutrophils): promote the migration of neutrophils and macrophages to the wound | activation of Smad (Smad2, Smad3) signaling pathway (Smad (Smad2, Smad3); BMDMs, 0, 25, 50, 100 μg/mL, 24 h): activates | dependence of Smad activation on TGF-β (Smad (Smad2, Smad3); BMDMs, 100 μg/mL, with or without TGF-β1 antibody): dependent on the production of TGF-β induced by Ot-WHP | collagen production by fibroblasts with coexisting macrophages (fibroblasts [12]): promote the collagen production by fibroblasts

scrambled Ot-WHP: scrambled Ot-WHP, SEQ ID NO:2, control peptide (PGPIPAHLGRRWAILIRPDLTRCG; Scrambled Ot-WHP Peptide) [reference compound]
healing of mouse skin wounds (wound healing rate) (mouse skin wounds): no activity to promote wound repair
